Measurements reported in US11702422B2, “Imidazopyridazines as modulators of IL-17” (Janssen Pharmaceutica NV, priority 2020, dated 2023).

Experiments:
[1] = tested on: IL-17A-induced G-CSF production in human normal keratinocyte (NHK); test: NHK Assay: IL-17A-induced G-CSF production in human normal keratinocytes; assay type: cell-based; conditions: Homo sapiens, Keratinocyte, 24 h, adult normal human keratinocytes, IL-17A 5 ng/mL, simple average if tested more than once
Method: IL-17A acts directly on keratinocytes through binding to dimeric receptor IL-17RA/RC and drives the production of a number of inflammatory mediators known to be elevated in psoriasis lesional tissue. IL-17A small molecule inhibitors that block the IL-17A to interact with IL-17R would inhibit the IL-17A signaling in its targeted cells such as keratinocytes. The compound functional activity is evaluated for its impact on IL-17A-induced G-CSF production in human normal keratinocyte (NHK).
Adult normal human keratinocytes are cultured in keratinocyte growth medium (Lonza) in a flask till reaching ˜ 90% confluence, then cells are transferred to a 384-well plate at density of 3000-4000 cell/well. Recombinant human IL-17A (Gibco PHC9174) is pre-incubated with titrated compound or DMSO for 1 h at rt then added to the cell culture plate. The final concentration of IL-17A is 5 ng/mL and DMSO is 0.2%, in the culture containing 5% FBS. Cells are cultured/treated for 24 h at 37° C. Supernatants are collected and G-CSF production is measured through HTRF technology using Human G-CSF Kit (CisBio). G-CSF concentration was extrapolated from the standard curve and IC50 is determined using GraphPad Prism. Cell viability is also evaluated using CellTiter-Glo kit (Promega) and effect of compound on cell viability is compared to DMSO control.

[2] = target: IL-17A(FLAG-Tagged): IL-17RA(His-Tagged) (Homo sapiens, UniProt Q16552, K93Q); test: IL-17A(FLAG-Tagged): IL-17RA(His-Tagged) Binding Disruption Eu-HTRF Assay; conditions: IL-17A/IL-17RA binding disruption, simple average if tested more than once
Excerpt: IL-17A(FLAG-Tagged): IL-17RA(His-Tagged) Binding Disruption Eu-HTRF Assay
An antibody directed against the FLAG tag of IL-17A (SEQ ID NO:1) is labeled with the HTRF donor chromophore (Europium-cryptate). IL-17A is present as a dimer that is “locked into” this quaternary structure due to the formation of loop-spanning […] disulfide bridges. The construct of IL-17RA used in the assay excludes the […] portion of the receptor and is fused to a C-terminal 10×His tag (SEQ ID NO:2). An antibody directed against the His tag of the IL-17RA chimera is labeled with the HTRF acceptor chromophore (“D2”). The fluorescence-resonance energy transfer (FRET) depends on the vicinity of the donor chromophore to the acceptor, and interruption of the binding between the IL-17A and IL-17RA causes the reduction/loss of FRET. Therefore, this assay allows to evaluate the compound effect on the binding IL-17A and IL-17RA by monitoring the fluorescence intensity of donor vs acceptor. The assay is run as described below.
40 nl of 2-fold serial diluted compound solution for total 22 dilution points is added into each well of a 1536-well, white, low-volume, non-binding plate (Greiner #782904), then 2 μl of FLAG tagged IL-17A at 2× final concentration (2.5 nM) in solution of PBS+0.01% Triton-X100 is added to each well. The assay plate is briefly centrifuged then incubated for 1 h at rt. A mixed solution is prepared containing 2×5 nM 10HIS×IL-17RA, 2×2.5 nM Eu-anti-FLAG (CISBIO), 2×5 nM D2-anti-HIS (CISBIO) in PBS+0.01% Triton-X100+200 mM Potassium Fluoride (Sigma 60238) and 2 μl of mix is added to each well of the assay plate. The plate is briefly centrifuged then incubated for 2 h at rt. The HTRF intensities at the wavelength of donor (620 nm) and acceptor (665 nm) are measured using BMG Pherastar. The ratio between intensities at two wavelengths is calculated and plotted against the compound concentration and the data is fitted to a one-site competition model to yield IC50 of the compound.

Chain of UniProt Q16552 (Q16552 with tags, fused parts or gaps K93Q): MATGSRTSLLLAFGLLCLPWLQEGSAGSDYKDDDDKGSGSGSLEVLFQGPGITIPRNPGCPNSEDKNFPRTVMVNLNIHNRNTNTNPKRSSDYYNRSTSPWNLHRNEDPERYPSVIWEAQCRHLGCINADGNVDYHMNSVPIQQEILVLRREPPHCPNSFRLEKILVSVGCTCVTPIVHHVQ

Cc1nonc1C(=O)N[C@H](c1cn2ncc([C@H](NC(=O)CC3CC3(F)F)C3CC3)cc2n1)C1CCC(F)(F)CC1 (relative stereo) [Example 256] showed an IC50 [1] of 250 nM and an IC50 [2] of 56 nM.
In the case of Cc1nonc1C(=O)N[C@H](c1cn2ncc([C@H](NC(=O)[C@H]3CC[C@@H]3F)C3CC3)cc2n1)C1CCC(F)(F)CC1 (relative stereo) [Example 334, N—((S)-(7-((R)-Cyclopropyl((1R*,2S*)-2-fluorocyclobutane-1-carboxamido)methyl)imidazo[1,2-b]pyridazin-2-yl)(4,4-difluorocyclohexyl)methyl)-4-methyl-1,2,5-oxadiazole-3-carboxamide], the IC50 [1] is reported as > 20000 nM and the IC50 [2] is reported as 4400 nM.
Cc1nonc1C(=O)N[C@H](c1cn2ncc([C@H](NC(=O)[C@@H]3CC[C@H]3F)C3CC3)cc2n1)C1CCC(F)(F)CC1 (relative stereo) [Example 335, N—((S)-(7-((R)-Cyclopropyl((1S*,2R*)-2-fluorocyclobutane-1-carboxamido)methyl)imidazo[1,2-b]pyridazin-2-yl)(4,4-difluorocyclohexyl)methyl)-4-methyl-1,2,5-oxadiazole-3-carboxamide] was tested, and the IC50 [1] was > 20000 nM and the IC50 [2] was 7500 nM.
With Cc1nonc1C(=O)N[C@H](c1cn2ncc([C@H](NC(=O)[C@H]3CC[C@H]3F)C3CC3)cc2n1)C1CCC(F)(F)CC1 (relative stereo) [Example 336, N—((S)-(7-((R)-Cyclopropyl((1R*,2R*)-2-fluorocyclobutane-1-carboxamido)methyl)imidazo[1,2-b]pyridazin-2-yl)(4,4-difluorocyclohexyl)methyl)-4-methyl-1,2,5-oxadiazole-3-carboxamide] the IC50 [1] was > 20000 nM and the IC50 [2] was 5000 nM.
With Cc1nonc1C(=O)N[C@H](c1cn2ncc([C@H](NC(=O)[C@@H]3CC[C@@H]3F)C3CC3)cc2n1)C1CCC(F)(F)CC1 (relative stereo) [Example 337, N—((S)-(7-((R)-Cyclopropyl((1S*,2S*)-2-fluorocyclobutane-1-carboxamido)methyl)imidazo[1,2-b]pyridazin-2-yl)(4,4-difluorocyclohexyl)methyl)-4-methyl-1,2,5-oxadiazole-3-carboxamide] the IC50 [1] was > 20000 nM and the IC50 [2] was 3500 nM.
With Cc1nonc1C(=O)N[C@H](c1cn2ncc([C@H](NC(=O)[C@@]34C[C@@H](F)[C@@H]3C4)C3CC3)cc2n1)C1CCC(F)(F)CC1 (relative stereo) [Example 340, N—((S)-(7-((R)-Cyclopropyl((1S*,3R*,4R*)-3-fluorobicyclo[2.1.0]pentane-1-carboxamido)methyl)imidazo[1,2-b]pyridazin-2-yl)(4,4-difluorocyclohexyl)methyl)-4-methyl-1,2,5-oxadiazole-3-carboxamide] the IC50 [1] was > 20000 nM and the IC50 [2] was 8600 nM.
In the case of Cc1nonc1C(=O)N[C@H](c1cn2ncc([C@H](NC(=O)[C@@]34C[C@@H]3[C@@H](F)C4)C3CC3)cc2n1)C1CCC(F)(F)CC1 (relative stereo) [Example 341, N—((S)-(7-((R)-Cyclopropyl((1R*,3S*,4S*)-3-fluorobicyclo[2.1.0]pentane-1-carboxamido)methyl)imidazo[1,2-b]pyridazin-2-yl)(4,4-difluorocyclohexyl)methyl)-4-methyl-1,2,5-oxadiazole-3-carboxamide], the IC50 [1] is reported as > 20000 nM and the IC50 [2] is reported as 4800 nM.
Cc1nonc1C(=O)N[C@H](c1cn2ncc([C@H](NC(=O)[C@H](F)[C@@H](C)C(F)(F)F)C3CC3)cc2n1)C1CCC(F)(F)CC1 (relative stereo) [Example 352, N—((S)-(7-((R)-Cyclopropyl((2R*,3R*)-2,4,4,4-tetrafluoro-3-methylbutanamido)methyl)imidazo[1,2-b]pyridazin-2-yl)(4,4-difluorocyclohexyl)methyl)-4-methyl-1,2,5-oxadiazole-3-carboxamide] showed an IC50 [1] of 190 nM and an IC50 [2] of 120 nM.
Cc1nonc1C(=O)N[C@H](c1cn2ncc([C@H](NC(=O)[C@H](F)[C@H](C)C(F)(F)F)C3CC3)cc2n1)C1CCC(F)(F)CC1 (relative stereo) [Example 353, N—((S)-(7-((R)-Cyclopropyl((2R*,3S*)-2,4,4,4-tetrafluoro-3-methylbutanamido)methyl)imidazo[1,2-b]pyridazin-2-yl)(4,4-difluorocyclohexyl)methyl)-4-methyl-1,2,5-oxadiazole-3-carboxamide] was tested, and the IC50 [1] was 970 nM and the IC50 [2] was 630 nM.
With Cc1nonc1C(=O)N[C@H](c1cn2ncc([C@H](NC(=O)[C@@H](F)[C@@H](C)C(F)(F)F)C3CC3)cc2n1)C1CCC(F)(F)CC1 (relative stereo) [Example 354, N—((S)-(7-((R)-Cyclopropyl((2S*,3R*)-2,4,4,4-tetrafluoro-3-methylbutanamido)methyl)imidazo[1,2-b]pyridazin-2-yl)(4,4-difluorocyclohexyl)methyl)-4-methyl-1,2,5-oxadiazole-3-carboxamide] the IC50 [1] was 2700 nM and the IC50 [2] was 730 nM.
In the case of Cc1nonc1C(=O)N[C@H](c1cn2ncc([C@H](NC(=O)[C@@H]3CNC[C@H]3C(F)(F)F)C3CC3)cc2n1)C1CCC(F)(F)CC1 (relative stereo) [Example 356, N—((S)-(7-((R)-Cyclopropyl((trans-3S*,4S*)-4-(trifluoromethyl)pyrrolidine-3-carboxamido)methyl)imidazo[1,2-b]pyridazin-2-yl)(4,4-difluorocyclohexyl)methyl)-4-methyl-1,2,5-oxadiazole-3-carboxamide], the IC50 [1] is reported as 7800 nM and the IC50 [2] is reported as 520 nM.
O=C(CCC(F)(F)F)N[C@@H](c1cnn2cc([C@@H](NC(=O)[C@@H]3C[C@@H]3C(F)F)C3CCC(F)(F)CC3)nc2c1)C1CC1 (relative stereo) [Example 358, (1R*,2S*)—N—((S)-(7-((R*)-Cyclopropyl(4,4,4-trifluorobutanamido)methyl)imidazo[1,2-b]pyridazin-2-yl)(4,4-difluorocyclohexyl)methyl)-2-(difluoromethyl)cyclopropane-1-carboxamide] showed an IC50 [1] of 2100 nM and an IC50 [2] of 450 nM.
For O=C(CCC(F)(F)F)N[C@@H](c1cnn2cc([C@@H](NC(=O)[C@H]3C[C@H]3C(F)F)C3CCC(F)(F)CC3)nc2c1)C1CC1 (relative stereo) [Example 359, (1S*,2R*)—N—((S)-(7-((R*)-Cyclopropyl(4,4,4-trifluorobutanamido)methyl)imidazo[1,2-b]pyridazin-2-yl)(4,4-difluorocyclohexyl)methyl)-2-(difluoromethyl)cyclopropane-1-carboxamide], the IC50 [1] was 10000 nM and the IC50 [2] was 1100 nM.
O=C(CCC(F)(F)F)N[C@@H](c1cnn2cc([C@@H](NC(=O)[C@@H]3C[C@H]3CF)C3CCC(F)(F)CC3)nc2c1)C1CC1 (relative stereo) [Example 362, (1R*,2R*)—N—((S)-(7-((R*)-Cyclopropyl(4,4,4-trifluorobutanamido)methyl)imidazo[1,2-b]pyridazin-2-yl)(4,4-difluorocyclohexyl)methyl)-2-(fluoromethyl)cyclopropane-1-carboxamide] was tested, and the IC50 [1] was > 20000 nM and the IC50 [2] was 4200 nM.
Compound O=C(CCC(F)(F)F)N[C@@H](c1cnn2cc([C@@H](NC(=O)[C@H]3C[C@@H]3CF)C3CCC(F)(F)CC3)nc2c1)C1CC1 (relative stereo) [Example 363, (1S*,2S*)—N—((S)-(7-((R*)-Cyclopropyl(4,4,4-trifluorobutanamido)methyl)imidazo[1,2-b]pyridazin-2-yl)(4,4-difluorocyclohexyl)methyl)-2-(fluoromethyl)cyclopropane-1-carboxamide] has an IC50 [1] of 1100 nM and an IC50 [2] of 640 nM.
